# Source: patent publication US20240335470A1, “CAR T CELLS FOR TREATING CD19+, CD20+ OR CD22+ TUMORS OR B-CELL DERIVED AUTO-IMMUNE DISEASES” (OSPEDALE PEDIATRICO BAMBINO GESU', priority 2020, published 2024)
# How the values were obtained:
# iC9.CAR.CD19 DAUDI cells = experiment: In vitro activation of iC9 by AP1903, DAUDI (FACS, qPCR); assay type: cell-based, human; settings: 20 nM AP1903
# Procedure: (§1) To induce the in vitro activation of iC9, cells were treated once with 20 nM of AP1903 (Medchemexpress, Cat. HY-16046). The percentage of CAR+ cells after the AP1903 treatment was evaluated by FACS at the indicated time points. […] Control cohort was infused with sterile PBS as vehicle solution. Tumor was monitored by weekly IVIS imaging analysis.
# (§2) Flow cytometry analysis was performed to determine cell surface antigens expression; monoclonal antibodies for CD45, CD3, CD19, CD22, CD10, CD34 (all from Becton Dickinson, USA) were combined with different fluorescence according to needs. iC9.CAR.CD19 expression was detected using a mAb directed to hCD34 epitope (anti-CD34 QBend-10 PE from R&D System, USA), or CD19 CAR Detection Reagent (Biotin; Miltenyi, Germany). Flow-cytometry analysis was performed using a BD LSRFortessa X-20 cytometer (BD Biosciences, USA) and analyzed by FACSDiva software (BD Biosciences, USA). FACS-sorting on CAR-transduced tumor cell lines was performed on a FACSAria (BD Biosciences, USA).
# (§3) The average of vector copy number (VCN) per cell was determined by real-time PCR, using a TaqMan probe designed on the retroviral construct using the Primer Express® software (Applied Biosystems) and reported in Table 2 (iC9 Probe and primers iC9).
# (§4) For VCN, each sample was analyzed in triplicate and the average of threshold cycles was used to quantify DNA copies in relation to the mean values of negative control samples. Relative gene expression was calculated using the house-keeping gene ACT1N1 (Hs_02249516 ACT1N1, ThermoFisher Scientific) qPCR was performed employing QuantStudio 12K Flex Real-Time PCR System (ThermoFisher Scientific). For IG/TR PCR-MRD of the DPs, each MRD value was calculated from the corresponding standard curve, and the results were normalized for values of the housekeeping Albumin gene. […]
# iC9.CAR.CD19 RAJI cells = experiment: In vitro activation of iC9 by AP1903, RAJI (qPCR); assay type: cell-based, human; settings: 20 nM AP1903
# Procedure: as §1, §3, §4
# [1] = test system: iC9.CAR.CD19 NALM-6 cells; experiment: In vitro activation of iC9 by AP1903, NALM-6 (qPCR); assay type: cell-based, human; settings: 20 nM AP1903
# Procedure: as §1, §3, §4
# [2] = test system: DAUDI, RAJI and NALM-6 iC9.CAR+ cells; experiment: In vitro activation of iC9 by AP1903, all cellular models (FACS, VCN); assay type: cell-based, human
# Procedure: as §1, §2, §3, §4
# [3] = test system: iC9.CAR.CD19LH-DAUDI cells; experiment: NSG xenograft, iC9.CAR.CD19LH-DAUDI, iC9 activation by AP1903; assay type: in vivo, NSG mice
# Procedure: Schematic representation of the experimental design, with iC9.CAR.CD19LH positive FF-Luciferase positive DAUDI cells infused at day-3. At Day 0, mice were evaluated for leukemia engraftment and treated with 100 μg/mouse of AP1903 from day 0 to day 28. (B) Bioluminescence images of each control untreated mouse and each AP1903 treated mouse. Mice were monitored for more than 30 days after AP1903 withdrawal (C) Bioluminescence values over time for each treated mouse in the two cohorts, un-treated (black lines) or AP1903 treated (dotted line) mice. (D) Kaplan-Meier survival curve analysis of leukaemia-bearing mice untreated (black line) or AP1903 treated (blue line). ****p-value=<0.00001. The only mouse (#20) showing a persisting positive signal at IVIS analysis after AP1903 administration was sacrificed at day 35 together with a negative control (#11) and a positive control (mouse not exposed to AP1903 administration, #6), to characterize the leukemia cells.
# as §1
# iC9-T cells = settings: patients with GVHD after haploidentical iC9-T cells infusion; cited from earlier work
smiles,measurement,setting,value
CC[C@H](C(=O)N1CCCC[C@H]1C(=O)O[C@H](CCc1ccc(OC)c(OC)c1)c1cccc(OCC(=O)NCCNC(=O)COc2cccc([C@@H](CCc3ccc(OC)c(OC)c3)OC(=O)[C@@H]3CCCCN3C(=O)[C@@H](CC)c3cc(OC)c(OC)c(OC)c3)c2)c1)c1cc(OC)c(OC)c(OC)c1 [AP1903],re-expansion of iC9.CAR+ leukemic cells on prolonged culture,iC9.CAR.CD19 DAUDI cells; FIG. 8E,not associated to re-expansion
same,MFI of CAR expression in AP1903 treated cells,"iC9.CAR.CD19 DAUDI cells; threshold value, FIG. 10E",142±22
same,transgene (TG) positivity in remaining cells after AP1903 exposure (qPCR),iC9.CAR.CD19 DAUDI cells; DAUDI cells,22.8%
same,transgene (TG) positivity in remaining cells after AP1903 exposure (qPCR),iC9.CAR.CD19 RAJI cells,18.6%
same,transgene (TG) positivity in remaining cells after AP1903 exposure (qPCR),[1],0.6%
same,percentage of CAR+ leukemic cells,"[2]; 20 nM AP1903, 6 hours",significant reduction in the percentage of CAR+ leukemic cells
same,CD19 antigen detection on cells remaining after AP1903,"[2]; 20 nM AP1903, FIG. 8E, 10B, 10D",completed re-established detection of CD19 antigen
same,average of VCN threshold in AP1903 treated B cells,"[2]; across all the considered cellular models, 20 nM, FIG. 10F",0.1±0.1
same,"complete CAR+ leukemia eradication, number of mice",[3]; AP1903 100 μg/mouse i.p. day 1 to day 28,9 out of 10
same,survival of treated mice,"[3]; AP1903 100 μg/mouse i.p., even after drug suspension, to day 63",100%
same,leukemia recurrence,[3]; until day 63 (endpoint of the experiment),no mice showing leukemia recurrence
same,residual iC9-T cells after AP1903 administration,iC9-T cells,1%
